# Read-outs that look alike come from different tables or passages of the source.
# Tests used:
# [1] = tested on: myasthenia gravis; experiment: Course of myasthenia gravis under drugs before inhalation of hydrogen gas (Example 1); assay type: in vivo, human; conditions: Tacrolimus 3 mg/day, Mestinon 60 mg × 3/day
# Method: The course from onset is as follows:
# Aug. 26, 2021: upper lip paralysis occurred. […] Since the patient was positive on an ice pack test and a Tensilon test, they were diagnosed as myasthenia gravis. No abnormality was found in a CT test. As a result of a blood test, the patient was false positive to an anti-acetylcholine antibody and prescribed an immunosuppressant (Tacrolimus 3 mg/day). […] The patient could not read letters on a newspaper, raise a frying pan or write letters, and their chewing power reduced.
# Sep. 9, 2021: the patient consulted the doctor because of worsening of symptoms and prescribed an anticholinesterase agent (Mestinon 60 mg × 3/day). […] Every day after 3 p.m. or later, the patient felt that their arms are unbearably heavy. Since the arms cannot be removed, the patient spent time with the arms kept on a table.
# Sep. 25, 2021: since symptoms were not improved and merely got worse, the patient changed their primary doctor to a neuroimmunology specialist doctor and hospitalization was considered.
# Sep. 29, 2021: an immunosuppressant (1 mg) was additionally prescribed by the neuroimmunology specialist doctor; that is, immunosuppressants (Tacrolimus 3 mg/day, Prograf 1 mg/day) were prescribed. The patient avoided hospitalization but was followed up as an outpatient. […] Based on the result, the patient was definitively diagnosed as anti-MuSK antibody positive myasthenia gravis. […]
# [2] = tested on: anti-MuSK antibody positive myasthenia gravis; conditions: for relapse after use of the immunosuppressants was stopped: only hydrogen gas inhalation continued since Mar. 30, 2022, supplemental hydrogen water
# Method: Patient: person at the time of onset. The course from onset is as follows:
# Jan. […] (Kamakura city, Kanagawa prefecture, Japan).
# Aug. 24, 2022: medical examination was carried out at the Department of Neurology in the Juntendo University Hospital.
# [3] = tested on: Hashimoto's disease; conditions: MHG-2000α, hydrogen about 5% to 7%
# [4] = human, in vivo
SMILES,symptoms of myasthenia gravis under the drug [1],"languor of the arm ([2]; Day 5 after initiation of inhalation, Jobs-α, hydrogen about 4% to 5%, Jan. 28, 2022)","constipation, a side effect of the immunosuppressants ([2]; Feb. 1, 2022, inhalation started Jan. 23, 2022)","blemishes on their face ([2]; Feb. 16, 2022)","symptoms of myasthenia gravis ([2]; Mar. 20, 2022)","body feeling when inhaling hydrogen gas ([2]; Mar. 22, 2022)","state of myasthenia gravis as told by the doctor ([2]; Oct. 19, 2022)","face turning red after drinking alcohol (side effect of the drugs) ([2]; after inhalation of hydrogen, Feb. 1, 2022)","number of red blood cells ([2]; blood test Mar. 9, 2022, under hydrogen inhalation, normal 3.8 to 5.04)","hematocrit ([2]; blood test Mar. 9, 2022, under hydrogen inhalation, normal 35.6 to 45.4)","anti-MuSK antibody ([2]; medical examination Aug. 24, 2022)",relapse after use of the immunosuppressants was stopped [2],relapse after use of the immunosuppressants was stopped ([2]; listed as hydrogen),fatigue [3],visual field (dark visual field) [3],side effects of hydrogen itself [4]
CN(C)C(=O)Oc1ccc[n+](C)c1 [Mestinon],their symptoms further got worse,–,–,–,–,–,–,–,–,–,–,–,–,–,–,–
C=CC[C@@H]1/C=C(\C)C[C@H](C)C[C@H](OC)[C@H]2O[C@@](O)(C(=O)C(=O)N3CCCC[C@H]3C(=O)O[C@H](/C(C)=C/[C@@H]3CC[C@@H](O)[C@H](OC)C3)[C@H](C)[C@@H](O)CC1=O)[C@H](C)C[C@@H]2OC [Tacrolimus],the symptoms progressed,–,–,–,–,–,–,–,–,–,–,–,–,–,–,–
"[HH] [hydrogen gas, hydrogen]",–,completely gone,overcome,became light,no longer observed,the body gets lighter,not in remission but in healed state,their face never turned red,4.22 10^12/L,40.7%,negative,no relapse occurred,no relapse has taken place,felt less fatigued,recovered from darkness and became bright,not found

# — patent US20230310496A1, “COMPOSITIONS AND METHODS FOR PREVENTING AND/OR AM[…]-[…] AUTOIMMUNE DISEASES” (MiZ Company Limited, priority 2022, published 2023)
